Patent publication US20260285853A1, “COMPOUNDS AND METHODS FOR MODULATING SPLICING” (REMIX THERAPEUTICS INC., priority 2023, published 2026)
Counter-ions that a name gives are not always drawn.

Key:
Type in all cases: cell-based
[1] = tested on: SH-SY5Y (human neuroblastoma) cells; assay: Cell viability, Cell Titer Glo 2.0 assay; conditions: read-out: Viability SHSY5Y.3 GI50
Method in brief: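 CellTiter-Glo 2.0 luminescence read-out after 72 h compound exposure (37 °C, 5% CO2); medium-only wells as blank. DMSO 0.1% final.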

MYB mRNA [2] = assay: Splicing RT-qPCR assay, canonical (CJ) and alternative (AJ) junction mRNA, K562 cells; conditions: Homo sapiens, K562.3 cells, 24 hours; for AC50: read-out: MYB AJ (AC50, increase in AJ mRNA); for IC50: read-out: MYB CJ (IC50, decrease in CJ mRNA)
Experimental: (§1) Compounds described herein were used to modulate RNA transcript abundance in cells. The expression of a target mRNA was measured by detecting the formation of an exon-exon junction in the canonical transcript (CJ). A compound mediated exon-inclusion event was detected by observing an increase in formation of a new junction with an alternative exon (AJ). Real-time qPCR assays were used to detect these splicing switches and interrogate the potency of various compounds towards different target genes. A high-throughput real time quantitative PCR (RT-qPCR) assay was developed to measure these two isoforms of the mRNA (CJ and AJ) for exemplary genes, such as HTT, SMN2, and MYB, together with a control housekeeping gene, GAPDH or GUSB or PPIA, used for normalization. Briefly, the A673 or K562 cell line was treated with various compounds described herein (e.g., compounds of Formula (I)). After treatment, the levels of the HTT, MYB, or SMN2 mRNA targets were determined from each sample of cell lysate by cDNA synthesis followed by qPCR.
(§2) • Cells-to-CT 1-step kit: ThermoFisher A25602, Cells-to-CT lysis reagent: ThermoFisher 4391851C, TaqMan™ Fast Virus 1-Step Master Mix: ThermoFisher 4444436 • GAPDH: VIC-PL, ThermoFisher 4326317E (Assay: Hs99999905_m1)—used for K562/suspension cell lines • GUSB: VIC-PL, ThermoFisher 4326320E (Assay: Hs99999908_m1)—used for K562/suspension cell lines • PPIA: VIC-PL, ThermoFisher 4326316E (Assay: Hs99999904_m1)—used for A673/adherent cell lines
(§3) The K562 cell line was cultured in IMDM with 10% FBS. For K562, cells were diluted with full growth media and plated in either a 96-well plate (50,000 cells in 50 uL media per well) or a 384-well plate (8,000-40,000 cells in 45 uL media per well). An 11-point 3-fold serial dilution of the compounds were made in DMSO then diluted in media in an intermediate plate. Compound was transferred from the intermediate plate to the cell plate with the top dose at a final concentration of 10 uM in the well. Final DMSO concentration was kept at or below 0.25%. Final volume was 100 uL for 96-well plate and 50 uL for 384-well plate. The cell plate was then placed in an incubator at 37° C. with 5% CO2 for 24 hours.
(§4) The cells were then gently washed with 50 uL-100 uL cold PBS before proceeding to addition of lysis buffer. 30 uL-50 uL of room temperature lysis buffer with DNAse I (and optionally RNAsin) was added to each well. Cells were shaken/mixed thoroughly at room temperature for 5-10 minutes for lysis to take place and then 3 uL-5 uL of room temperature stop solution was added and wells were shaken/mixed again. After 2-5 minutes, the cell lysate plate was transferred to ice for RT-qPCR reaction setup. The lysates could also be frozen at −80° C. for later use.
(§5) In some cases, a direct lysis buffer was used. An appropriate volume of 3× lysis buffer (10 mM Tris, 150 mM NaCl, 1.5%-2.5% Igepal and 0.1-1 U/uL RNAsin, pH 7.4) was directly added to either K562 or A673 cells in media and mixed by pipetting 3 times. The plates were then incubated at room temperature with shaking/rocking for 20-50 minutes to allow for lysis to take place. After this time, the cell lysate plate was transferred to ice to set up for the RT-qPCR reactions. The lysates could also be frozen at −80° C. for later use.
(§6) To set up 10 uL RT-qPCR reactions, cell lysates were transferred to 384-well qPCR plates containing the master mix according to the table below. The plates were sealed, gently vortexed, and spun down before the run. The volumes were adjusted accordingly in some instances where the reaction was carried in 20 uL. The table below summarizes the components of the RT-qPCR reactions:
(§7) The RT-qPCR reaction was performed using a QuantStudio (ThermoFisher) under the following fast cycling conditions. All samples and standards were analyzed at least in duplicate. In some instances, bulk room temperature (RT) step of 5-10 minutes was completed for all plates before proceeding with qPCR. […]

HTT mRNA [3] = assay: as above; conditions: Homo sapiens, K562.3 cells, 24 hours; for AC50: read-out: HTT AJ (AC50, increase in AJ mRNA); for IC50: read-out: HTT CJ (IC50, decrease in CJ mRNA)
Experimental: as §1, §2, §3, §4, §5, §6, §7

MYB mRNA [4] = assay: Gene panel canonical junction qPCR assay, decrease in CJ mRNA, Table 3; conditions: decrease in canonical junction (CJ) mRNA, gene panel qPCR, Table 3
Method in brief: (§8)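 Cells: A673 or K562; 24 h compound exposure, 37 °C, 5% CO2; 11-pt 3-fold series from 10 uM final; DMSO ≤0.25%. Lysate → cDNA → qPCR with junction-spanning primers/probe for CJ transcript. ΔCt vs housekeeper, ΔΔCt vs DMSO, 2^(−ΔΔCt), % response, 4PL → IC50.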

SMN2 mRNA = assay: as above; conditions: decrease in canonical junction (CJ) mRNA, gene panel qPCR, Table 3
Method in brief: as §8

HTT mRNA [5] = assay: as above; conditions: decrease in canonical junction (CJ) mRNA, gene panel qPCR, Table 3
Method in brief: as §8

MYB mRNA [6] = assay: Splicing RT-qPCR assay (THP), Table 2A; conditions: Table 2A (THP); for AC50: AJ mRNA increase, read-out: MYB AJ (increase in alternative junction mRNA, AC50); for IC50: CJ mRNA decrease, read-out: MYB CJ (decrease in canonical junction mRNA, IC50)
HTT mRNA [7] = assay: Splicing RT-qPCR assay (THP), Table 2A; conditions: Table 2A (THP); for AC50: AJ mRNA increase, read-out: HTT AJ (increase in alternative junction mRNA, AC50); for IC50: CJ mRNA decrease, read-out: HTT CJ (decrease in canonical junction mRNA, IC50)

Cc1cn2cc(NC(=O)c3ccc(N4CC[C@@H]5CNCC[C@@H]54)c4cn(C)nc34)cc(F)c2n1 (stereo in doubt) [Compound 101, N-(8-fluoro-2-methyl-imidazo[1,2-a]-pyridin-6-yl)-2-methyl-4-(octahydro-pyrrolo[3,2-c]-pyridin-1-yl)indazole-7-carboxamide hydrochloride]
GI50 [1]: 1 to 10 µM
AC50 (MYB mRNA [2]): 100 to 1000 nM
IC50 (MYB mRNA [2]): 100 to 1000 nM
AC50 (HTT mRNA [3]): 1 to 10 µM
IC50 (HTT mRNA [3]): 1 to 10 µM
IC50 (MYB mRNA [4]): 100 to 1000 nM
IC50 (SMN2 mRNA): < 100 nM
IC50 (HTT mRNA [5]): 1 to 10 µM

Cc1cn2cc(NC(=O)c3ccc(N4CCC5NCCCC54)c4cn(C)nc34)cc(F)c2n1 (stereo not shown) [Compound 100, N-(8-fluoro-2-methylimidazo[1,2-a]pyridin-6-yl)-2-methyl-4-(octahydropyrrolo[3,2-b]pyridin-1-yl)indazole-7-carboxamide]
GI50 [1]: 1 to 10 µM
AC50 (MYB mRNA [2]): 100 to 1000 nM
IC50 (MYB mRNA [2]): 100 to 1000 nM
AC50 (HTT mRNA [3]): 1 to 10 µM
IC50 (HTT mRNA [3]): 1 to 10 µM
IC50 (MYB mRNA [4]): 100 to 1000 nM
IC50 (SMN2 mRNA): < 100 nM
IC50 (HTT mRNA [5]): 1 to 10 µM

CN[C@@H]1CN(c2ccc(C(=O)Nc3cc(F)c4nc(C)cn4c3)c3nn(C)cc23)C[C@H]1C [Compound 107, N-(8-fluoro-2-methyl-imidazo[1,2-a]pyridin-6-yl)-2-methyl-4-[(3R,4S)-3-methyl-4-(methylamino)pyrrolidin-1-yl]indazole-7-carboxamide]
GI50 [1]: 1 to 10 µM
AC50 (MYB mRNA [2]): 100 to 1000 nM
IC50 (MYB mRNA [2]): 100 to 1000 nM
AC50 (HTT mRNA [3]): > 10 µM
IC50 (HTT mRNA [3]): 1 to 10 µM
IC50 (MYB mRNA [4]): 100 to 1000 nM
IC50 (SMN2 mRNA): < 100 nM
IC50 (HTT mRNA [5]): 1 to 10 µM

CCNC1CCN(c2cc(F)c(C(=O)Nc3cc4c(C)nc(C)cn4n3)c3nn(C)cc23)CC1 [Compound 302, N-(4,6-dimethylpyrazolo [1,5-a]pyrazin-2-yl)-4-[4-(ethylamino)-1-piperidyl]-6-fluoro-2-methyl-indazole-7-carboxamide]
GI50 [1]: > 10 µM
AC50 (MYB mRNA [6]): > 10 µM
IC50 (MYB mRNA [6]): > 10 µM
IC50 (MYB mRNA [4]): > 10000 nM
IC50 (SMN2 mRNA): > 10000 nM
IC50 (HTT mRNA [5]): > 10 µM
AC50 (HTT mRNA [7]): > 10 µM
IC50 (HTT mRNA [7]): > 10 µM

CCNC1CCN(c2ccc(C(=O)Nc3cc(F)c4cnccc4c3)c3nn(C)cc23)CC1 [Compound 303, 4-[4-(ethylamino)-1-piperidyl]-N-(8-fluoro-6-isoquinolyl)-2-methylindazole-7-carboxamide]
GI50 [1]: 1 to 10 µM
AC50 (MYB mRNA [6]): > 10 µM
IC50 (MYB mRNA [6]): > 10 µM
IC50 (MYB mRNA [4]): > 10000 nM
IC50 (SMN2 mRNA): > 10000 nM
IC50 (HTT mRNA [5]): > 10 µM
AC50 (HTT mRNA [7]): > 10 µM
IC50 (HTT mRNA [7]): > 10 µM

CCNC1CCN(c2cc(F)c(C(=O)Nc3cn4cc(C5CC5)nc4c(F)c3OC)c3nn(C)cc23)CC1 [Compound 304, N-(2-cyclopropyl-8-fluoro-7-methoxyimidazo [1,2-a]pyridin-6-yl)-4-[4-(ethylamino)-piperidin-1-yl]-6-fluoro-2-methylindazole-7-carboxamide]
GI50 [1]: 1 to 10 µM
AC50 (MYB mRNA [6]): > 10 µM
IC50 (MYB mRNA [6]): > 10 µM
IC50 (MYB mRNA [4]): > 10000 nM
IC50 (SMN2 mRNA): 100 to 1000 nM
IC50 (HTT mRNA [5]): > 10 µM
AC50 (HTT mRNA [7]): > 10 µM
IC50 (HTT mRNA [7]): > 10 µM

CCNC1CCN(c2cc(F)c(C(=O)Nc3cn4c(C)c(C)nc4c(F)c3OC)c3nn(C)cc23)CC1 [Compound 305, 4-[4-(ethylamino)piperidin-1-yl]-6-fluoro-N-(8-fluoro-7-methoxy-2,3-dimethyl-imidazo[1,2-a]pyridin-6-yl)-2-methylindazole-7-carboxamide]
GI50 [1]: > 10 µM
AC50 (MYB mRNA [6]): > 10 µM
IC50 (MYB mRNA [6]): > 10 µM
IC50 (MYB mRNA [4]): > 10000 nM
IC50 (SMN2 mRNA): > 10000 nM
IC50 (HTT mRNA [5]): > 10 µM
AC50 (HTT mRNA [7]): > 10 µM
IC50 (HTT mRNA [7]): > 10 µM

CCNC1CCN(c2cc(F)c(C(=O)Nc3cn4cc(C)nc(C)c4n3)c3nn(C)cc23)CC1 [Compound 306, N-(6,8-dimethylimidazo[1,2-a]pyrazin-2-yl)-4-(4-(ethylamino)-piperidin-1-y1)-6-fluoro-2-methyl-2H-indazole-7-carboxamide 2,2,2-trifluoroacetate]
GI50 [1]: 1 to 10 µM
AC50 (MYB mRNA [6]): < 0.1 µM
IC50 (MYB mRNA [6]): < 0.1 µM
IC50 (MYB mRNA [4]): < 100 nM
IC50 (SMN2 mRNA): < 100 nM
IC50 (HTT mRNA [5]): > 10 µM
AC50 (HTT mRNA [7]): 1 to 10 µM
IC50 (HTT mRNA [7]): > 10 µM

CCNC1CCN(c2ccc(C(=O)Nc3cc(C#N)c4nc(C)cn4c3)c3nn(C)cc23)CC1 [Compound 307, N-(8-cyano-2-methyl-imidazo[1,2-a]pyridin-6-yl)-4-[4-(ethylamino)-1-piperidyl]-2-methyl-indazole-7-carboxamide]
GI50 [1]: 1 to 10 µM
AC50 (MYB mRNA [6]): 0.1 to 1 µM
IC50 (MYB mRNA [6]): 0.1 to 1 µM
IC50 (MYB mRNA [4]): 100 to 1000 nM
IC50 (SMN2 mRNA): < 100 nM
IC50 (HTT mRNA [5]): 1 to 10 µM
AC50 (HTT mRNA [7]): 1 to 10 µM
IC50 (HTT mRNA [7]): 1 to 10 µM

CCNC1CCN(c2cc(F)c(C(=O)Nc3cn4c(Cl)c(C)nc4c(F)c3OC)c3nn(C)cc23)CC1 [Compound 308, N-(3-chloro-8-fluoro-7-methoxy-2-methyl-imidazo [1,2-a]pyridin-6-yl)-4-[4-(ethylamino)-1-piperidyl]-6-fluoro-2-methyl-indazole-7-carboxamide]
GI50 [1]: 1 to 10 µM
AC50 (MYB mRNA [6]): > 10 µM
IC50 (MYB mRNA [6]): > 10 µM
IC50 (MYB mRNA [4]): > 10000 nM
IC50 (SMN2 mRNA): 100 to 1000 nM
IC50 (HTT mRNA [5]): > 10 µM
AC50 (HTT mRNA [7]): > 10 µM
IC50 (HTT mRNA [7]): > 10 µM

CCNC1CCN(c2ccc(C(=O)Nc3cn4cc(C5CC5)nc(C)c4n3)c3nn(C)cc23)CC1 [Compound 309, N-(6-cyclopropyl-8-methylimidazo[1,2-a]-pyrazin-2-yl)-4-[4-(ethylamino)-1-piperidyl]-2-methyl-indazole-7-carboxamide]
GI50 [1]: > 10 µM
AC50 (MYB mRNA [6]): > 10 µM
IC50 (MYB mRNA [6]): > 10 µM
IC50 (MYB mRNA [4]): > 10000 nM
IC50 (SMN2 mRNA): > 10000 nM
IC50 (HTT mRNA [5]): > 10 µM
AC50 (HTT mRNA [7]): > 10 µM
IC50 (HTT mRNA [7]): > 10 µM
